Assay results taken from PubChem BioAssay AID330 (DTP/NCI, 2004).
Values joined by “and” are separate entries in the source; they are usually repeats but may differ in a detail not shown here. Equal values may be shown once. Inconclusive results and toxic doses are left out. Rule for the calls: active = survival T/C of 150% or more; inactive = T/C below 125% in these data.

Test system: P388 leukemia ip, CD2F1 mice, survival T/C
Assay: NCI In Vivo Anticancer Drug Screen. Data for tumor model P388 Leukemia (intraperitoneal) in CD2F1 (CDF1) mice
Conditions: endpoint: median survival time, higher = longer survival
Method in brief: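 Mice carrying the transplanted tumor received test compound or vehicle. Survival was recorded in each group, and the value is the treated-group measurement divided by that of the vehicle-treated control group.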

Measured: T/C

Cc1[nH]c(=O)[nH]c(=O)c1N(CCF)CCCl
inactive: dose: 0.5 mg/kg/injection, schedule: Q03HX024 (ip), vehicle: acid diluted with saline 101 % of control | dose: 1.0 mg/kg/injection, schedule: Q03HX016 (ip), vehicle: acid diluted with saline 100 % of control | dose: 1.0 mg/kg/injection, schedule: Q03HX024 (ip), vehicle: acid diluted with saline 105 % of control | dose: 1.8 mg/kg/injection, schedule: Q01DX009 (ip), vehicle: saline with Tween-80 109 % of control | dose: 2.0 mg/kg/injection, schedule: Q01DX009 (ip), vehicle: acid diluted with saline 110 % of control | dose: 2.0 mg/kg/injection, schedule: Q01DX009 (sc), vehicle: acid diluted with saline 101 % of control | dose: 2.0 mg/kg/injection, schedule: Q03HX008 (ip), vehicle: acid diluted with saline 105 % of control | dose: 2.0 mg/kg/injection, schedule: Q03HX016 (ip), vehicle: acid diluted with saline 105 % of control | dose: 2.0 mg/kg/injection, schedule: Q03HX024 (ip), vehicle: acid diluted with saline 108 % of control | dose: 2.0 mg/kg/injection, schedule: Q03HX024 (oral), vehicle: acid diluted with saline 109 % of control | dose: 2.0 mg/kg/injection, schedule: Q03HX024 (oral), vehicle: other 107 % of control | dose: 3.0 mg/kg/injection, schedule: Q01DX009 (ip), vehicle: saline with Tween-80 109 % of control | dose: 4.0 mg/kg/injection, schedule: Q01DX005 (ip), vehicle: Klucel (hydroxypropylcellulose) (HPC) 121 % of control | dose: 4.0 mg/kg/injection, schedule: Q01DX005 (iv), vehicle: Klucel (hydroxypropylcellulose) (HPC) 102 % of control | dose: 4.0 mg/kg/injection, schedule: Q01DX009 (ip), vehicle: acid diluted with saline 101 % of control | dose: 4.0 mg/kg/injection, schedule: Q01DX009 (sc), vehicle: acid diluted with saline 103 % of control | dose: 4.0 mg/kg/injection, schedule: Q03HX008 (ip), vehicle: acid diluted with saline 105 % of control | dose: 4.0 mg/kg/injection, schedule: Q03HX008 (oral), vehicle: other 105 % of control | dose: 4.0 mg/kg/injection, schedule: Q03HX016 (oral), vehicle: other 100 % of control | dose: 4.0 mg/kg/injection, schedule: Q03HX024 (ip), vehicle: acid diluted with saline 112 % of control | dose: 4.0 mg/kg/injection, schedule: Q03HX024 (oral), vehicle: acid diluted with saline 100 % of control | dose: 4.0 mg/kg/injection, schedule: Q03HX024 (oral), vehicle: other 108 % of control | dose: 4.0 mg/kg/injection, schedule: Q04DX003 (ip), vehicle: acid diluted with saline 106 % of control | dose: 5.0 mg/kg/injection, schedule: Q01DX009 (ip), vehicle: saline with Tween-80 109 % of control | dose: 6.25 mg/kg/injection, schedule: Q04DX003 (ip), vehicle: saline 104 % of control | dose: 8.0 mg/kg/injection, schedule: Q01DX001 (ip), vehicle: acid diluted with saline 109 % of control | dose: 8.0 mg/kg/injection, schedule: Q01DX001 (ip), vehicle: saline 118 % of control | dose: 8.0 mg/kg/injection, schedule: Q01DX005 (iv), vehicle: Klucel (hydroxypropylcellulose) (HPC) 119 % of control | dose: 8.0 mg/kg/injection, schedule: Q01DX009 (ip), vehicle: acid diluted with saline 116 % of control | dose: 8.0 mg/kg/injection, schedule: Q01DX009 (oral), vehicle: acid diluted with saline 109 % of control | dose: 8.0 mg/kg/injection, schedule: Q01DX009 (oral), vehicle: other 115 % of control | dose: 8.0 mg/kg/injection, schedule: Q01DX009 (sc), vehicle: acid diluted with saline 108 % of control | dose: 8.0 mg/kg/injection, schedule: Q03HX008 (ip), vehicle: acid diluted with saline 103 % of control | dose: 8.0 mg/kg/injection, schedule: Q03HX008 (oral), vehicle: acid diluted with saline 109 % of control | dose: 8.0 mg/kg/injection, schedule: Q03HX008 (oral), vehicle: other 106 % of control | dose: 8.0 mg/kg/injection, schedule: Q03HX016 (ip), vehicle: acid diluted with saline 105 % of control | dose: 8.0 mg/kg/injection, schedule: Q03HX016 (oral), vehicle: acid diluted with saline 100 % of control | dose: 8.0 mg/kg/injection, schedule: Q03HX016 (oral), vehicle: other 106 % of control | dose: 8.0 mg/kg/injection, schedule: Q03HX024 (oral), vehicle: acid diluted with saline 104 % of control | dose: 8.0 mg/kg/injection, schedule: Q03HX024 (oral), vehicle: other 115 % of control | dose: 8.0 mg/kg/injection, schedule: Q04DX003 (ip), vehicle: acid diluted with saline 112 % of control | dose: 8.0 mg/kg/injection, schedule: Q08DX002 (ip), vehicle: acid diluted with saline 100 % of control | dose: 12.5 mg/kg/injection, schedule: Q04DX003 (ip), vehicle: saline 122 % of control | dose: 16.0 mg/kg/injection, schedule: Q01DX001 (ip), vehicle: acid diluted with saline 103 % of control and 118 % of control and 122 % of control | dose: 16.0 mg/kg/injection, schedule: Q01DX001 (ip), vehicle: saline 122 % of control | dose: 16.0 mg/kg/injection, schedule: Q01DX001 (sc), vehicle: acid diluted with saline 100 % of control | dose: 16.0 mg/kg/injection, schedule: Q01DX005 (iv), vehicle: Klucel (hydroxypropylcellulose) (HPC) 121 % of control | dose: 16.0 mg/kg/injection, schedule: Q01DX009 (oral), vehicle: acid diluted with saline 113 % of control | dose: 16.0 mg/kg/injection, schedule: Q01DX009 (oral), vehicle: other 115 % of control | dose: 16.0 mg/kg/injection, schedule: Q01DX009 (sc), vehicle: acid diluted with saline 123 % of control | dose: 16.0 mg/kg/injection, schedule: Q03HX008 (ip), vehicle: acid diluted with saline 106 % of control | dose: 16.0 mg/kg/injection, schedule: Q03HX008 (oral), vehicle: acid diluted with saline 109 % of control | dose: 16.0 mg/kg/injection, schedule: Q03HX008 (oral), vehicle: other 106 % of control | dose: 16.0 mg/kg/injection, schedule: Q03HX016 (ip), vehicle: acid diluted with saline 105 % of control | dose: 16.0 mg/kg/injection, schedule: Q03HX016 (oral), vehicle: acid diluted with saline 109 % of control | dose: 16.0 mg/kg/injection, schedule: Q03HX024 (oral), vehicle: acid diluted with saline 109 % of control | dose: 16.0 mg/kg/injection, schedule: Q03HX024 (oral), vehicle: other 100 % of control | dose: 16.0 mg/kg/injection, schedule: Q04DX003 (ip), vehicle: acid diluted with saline 108 % of control | dose: 16.0 mg/kg/injection, schedule: Q04DX003 (oral), vehicle: acid diluted with saline 113 % of control | dose: 16.0 mg/kg/injection, schedule: Q04DX003 (oral), vehicle: other 111 % of control | dose: 16.0 mg/kg/injection, schedule: Q08DX002 (ip), vehicle: acid diluted with saline 101 % of control | dose: 32.0 mg/kg/injection, schedule: Q01DX001 (ip), vehicle: acid diluted with saline 103 % of control | dose: 32.0 mg/kg/injection, schedule: Q01DX001 (oral), vehicle: other 106 % of control | dose: 32.0 mg/kg/injection, schedule: Q01DX001 (sc), vehicle: acid diluted with saline 99 % of control | dose: 32.0 mg/kg/injection, schedule: Q01DX009 (oral), vehicle: acid diluted with saline 118 % of control | dose: 32.0 mg/kg/injection, schedule: Q03HX008 (ip), vehicle: acid diluted with saline 107 % of control | dose: 32.0 mg/kg/injection, schedule: Q03HX016 (oral), vehicle: acid diluted with saline 109 % of control | dose: 32.0 mg/kg/injection, schedule: Q04DX003 (ip), vehicle: acid diluted with saline 123 % of control | dose: 32.0 mg/kg/injection, schedule: Q04DX003 (oral), vehicle: acid diluted with saline 109 % of control | dose: 32.0 mg/kg/injection, schedule: Q04DX003 (oral), vehicle: other 108 % of control | dose: 32.0 mg/kg/injection, schedule: Q08DX002 (ip), vehicle: acid diluted with saline 101 % of control | dose: 32.0 mg/kg/injection, schedule: Q08DX002 (oral), vehicle: other 114 % of control | dose: 64.0 mg/kg/injection, schedule: Q01DX001 (oral), vehicle: acid diluted with saline 109 % of control | dose: 64.0 mg/kg/injection, schedule: Q01DX001 (oral), vehicle: other 108 % of control | dose: 64.0 mg/kg/injection, schedule: Q01DX001 (sc), vehicle: acid diluted with saline 100 % of control | dose: 64.0 mg/kg/injection, schedule: Q04DX003 (oral), vehicle: acid diluted with saline 109 % of control | dose: 64.0 mg/kg/injection, schedule: Q04DX003 (oral), vehicle: other 124 % of control | dose: 64.0 mg/kg/injection, schedule: Q08DX002 (oral), vehicle: acid diluted with saline 109 % of control | dose: 64.0 mg/kg/injection, schedule: Q08DX002 (oral), vehicle: other 115 % of control | dose: 128.0 mg/kg/injection, schedule: Q01DX001 (oral), vehicle: acid diluted with saline 109 % of control | dose: 128.0 mg/kg/injection, schedule: Q01DX001 (sc), vehicle: acid diluted with saline 99 % of control | dose: 128.0 mg/kg/injection, schedule: Q01DX009 (oral), vehicle: acid diluted with saline 118 % of control | dose: 128.0 mg/kg/injection, schedule: Q08DX002 (oral), vehicle: acid diluted with saline 100 % of control | dose: 256.0 mg/kg/injection, schedule: Q01DX001 (oral), vehicle: acid diluted with saline 109 % of control | dose: 256.0 mg/kg/injection, schedule: Q01DX001 (sc), vehicle: acid diluted with saline 100 % of control | dose: 256.0 mg/kg/injection, schedule: Q04DX003 (oral), vehicle: acid diluted with saline 118 % of control | dose: 256.0 mg/kg/injection, schedule: Q08DX002 (oral), vehicle: acid diluted with saline 104 % of control | dose: 512.0 mg/kg/injection, schedule: Q01DX001 (oral), vehicle: acid diluted with saline 113 % of control | dose: 512.0 mg/kg/injection, schedule: Q08DX002 (oral), vehicle: acid diluted with saline 109 % of control
active: dose: 16.0 mg/kg/injection, schedule: Q01DX009 (ip), vehicle: acid diluted with saline 150 % of control | dose: 23.0 mg/kg/injection, schedule: Q01DX009 (ip), vehicle: saline with Tween-80 150 % of control | dose: 25.0 mg/kg/injection, schedule: Q04DX003 (ip), vehicle: saline 163 % of control | dose: 32.0 mg/kg/injection, schedule: Q01DX001 (ip), vehicle: saline 154 % of control | dose: 32.0 mg/kg/injection, schedule: Q01DX009 (ip), vehicle: acid diluted with saline 158 % of control | dose: 64.0 mg/kg/injection, schedule: Q01DX001 (ip), vehicle: saline 159 % of control
